In assay [1] the test system is MV4-11. Kind of assay: Surface CD11b by FACS in MV4-11. It counts as cell-based. Particulars: single agent, 72 h. How it is done:
(§1) The distribution of cells among G0/G1 phase, G2/M phase, S phase and subG1 phase was determined. […] The relative fraction of cells that were live, in early apoptosis, in late apoptosis, or dead was then determined.
(§2) MV4-11 cells were treated with Compound E or with Compound A or with Compound B as single agent or in combination with azacitidine at indicated doses. FIGS. 12A, 12C, and 12E show surface levels of CD11b determined by FACS at 72 h post-treatment. FIGS. 12B, 12D, and 12F show assessment of apoptosis by FACS (as in, e.g., FIG. 9C) at 96 h post-treatment.
(§3) FIG. 17. […] (A) Indicated AML cell lines were exposed to increasing concentrations of Compound J to confirm their sensitivity to HDAC1/2 inhibition. (B-D) MV4-11 cells were treated with indicated concentrations of compounds. (B) Surface levels of myeloid differentiation marker CD11b were determined by FACS at 72 h post-treatment. […] (C) Cell cycle was assessed by flow cytometry after incorporation of EdU and staining with Far Red at 72 h post-treatment. The distribution of cells among G0/G1 phase, G2/M phase, S phase and subG1 phase was determined. […] (D) Apoptosis was assessed by flow cytometry via measuring Annexin V binding and cellular permeability to propidium iodide at 96 h post-treatment. The relative fraction of cells that were live, in early apoptosis, in late apoptosis or dead was then determined.

For assay [2], the system named is HL-60, NB4, MV4-11, Kasumi-1, THP-1, and MOLM-13. Briefly: Single agent activity on viability in AML cell lines. It counts as cell-based. The settings on record: for viability IC50 relative to HDAC selective range: 72 hours, six AML cell lines. How it is done: FIGS. 3A-D show the single agent activity on viability in AML cell lines. Briefly, each of the following cell lines: HL-60, THP-1, MV-4-11, Kasumi-1, NB4, and MOLM-13 were exposed to increasing concentrations of either Compound B (FIG. 3A), Compound A (FIG. 3B), Compound E (FIG. 3C), or azacitidine (FIG. 3D) to determine their response to drug treatment. […] The panel of cell lines was also treated with azacitidine to measure their sensitivity.
FIGS. 8A-F show the single agent activity on viability in AML cell lines. […] Viability was calculated as a percentage of control (DMSO treated cells). Growth inhibition curves were generated using GraphPad Prism 6.
FIG. 17. […] (B-D) MV4-11 cells were treated with indicated concentrations of compounds. (B) Surface levels of myeloid differentiation marker CD11b were determined by FACS at 72 h post-treatment. […] (C) Cell cycle was assessed by flow cytometry after incorporation of EdU and staining with Far Red at 72 h post-treatment. The distribution of cells among G0/G1 phase, G2/M phase, S phase and subG1 phase was determined. […] (D) Apoptosis was assessed by flow cytometry via measuring Annexin V binding and cellular permeability to propidium iodide at 96 h post-treatment. The relative fraction of cells that were live, in early apoptosis, in late apoptosis or dead was then determined.

Assay [3] relates to HDAC1, HDAC2, HDAC3 and HDAC6. Kind of assay: HDAC selectivity of the inhibitor panel. It counts as biochemical. The settings on record: HDAC isoform(s) the inhibitor is selective for. The method, then: Compounds for testing are diluted in DMSO to 50 fold the final concentration and a ten point three fold dilution series is made. The compounds are diluted in assay buffer (50 mM HEPES, pH 7.4, 100 mM Kill, 0.001% Tween-20, 0.05% BASE, 20 μM TEC) to 6 fold their final concentration. The HDAC enzymes (purchased from BPS Biosciences) are diluted to 1.5 fold their final concentration in assay buffer. The dipeptide substrate and trypsin at 0.05 μM final concentration are diluted in assay buffer at 6 fold their final concentration. The final enzyme concentrations to use in these assays are 3.3 ng/ml (HDAC1), 0.2 ng/ml (HDAC2), 0.08 ng/ml (HDAC3) and 2 ng/ml (HDAC6). The final substrate concentrations to use are 16 μM (HDAC1), 10 μM (HDAC2), 17 μM (HDAC3) and 14 μM (HDAC6). Five μ1 of compound and 20 μl of enzyme are added to wells of a black, opaque 384 well plate in duplicate. Enzyme and compound are incubated together at room temperature for 10 min. Five μ1 of substrate is added to each well, the plate is shaken for 60 seconds and placed into a Victor 2 microliter plate reader. The development of fluorescence is monitored for 60 min. and the linear rate of the reaction is calculated. The IC50 is determined using Graph Pad Prism by a four parameter curve fit.
The following HDAC inhibitors were used to evaluate the relationship between HDAC selectivity and the viability of AML cell lines upon exposure to the HDAC inhibitor: […]

Assay [4] concerns MV4-11. Kind of assay: Apoptosis by Annexin V / propidium iodide flow cytometry in MV4-11. It counts as cell-based. Particulars: single agent, 96 h. The method, then: as §1, §2, §3
For orientation: Flow cytometry measures light scatter and fluorescence of single cells or particles in a stream.

Assay [5] deals with AML blast freshly derived from bone marrow of AML patients. Kind of assay: Ex vivo proliferation of AML blast freshly derived from bone marrow. Type of assay: cell-based. The settings on record: Homo sapiens; 5 bone marrow samples from AML patients; flow cytometry at 96 h; single agent; read-out: median IC50, live AML cells. How it is done: (A-B), 5 bone marrow samples derived from AML patients were treated with increasing concentrations of azacitidine, Compound A and Compound J and live AML cells were quantified by flow cytometry at 96 h. IC50 values (A) and AUC values (B) were plotted. […] The relative potency of the three drugs are Compound J>azacitidine>Compound A, consistent with the result in FIG. 2. (C) 5 bone marrow samples derived from AML patients were treated with increasing doses of azacitidine with Compound J and live AML cells were quantified by flow cytometry at 96 h. The combination index (Comb IDX) were calculated and median Comb IDX values were plotted.

Assay [6] deals with MV4-11. Kind of assay: Cell cycle by flow cytometry (EdU, Far Red) in MV4-11. Type of assay: cell-based. The settings on record: single agent, 72 h. How it is done:
as §1, §3

Assay [7] has as its system bone marrow samples derived from AML patients. Briefly: Primary AML sample colony formation assay. It counts as cell-based. The settings on record: Homo sapiens, 336 h; 6 bone marrow samples from AML patients; 14 days; single agent; read-out: median IC50, colony formation. The method, then: (A) 6 bone marrow samples derived from AML patients were cultured in methylcellulose-based medium and treated with increasing concentrations of Compound A, Compound J and azacitidine for 14 days when the colonies reach reasonable size. IC50 values for each drug are plotted. […] IC50 values were plotted for each patient sample.

For a further assay, the system named is Kasumi-1. Kind of assay: Surface CD11b by FACS in Kasumi-1. Type of assay: cell-based. Particulars: single agent, 72 hours. The method, then:
(§4) Briefly, the AML cell lines HL-60 (FIGS. 4A and 4D), Kasumi-1 (FIGS. 4B and 4E) and NB4 (FIGS. 4C and 4F) were treated with the indicated concentrations of compounds. In FIGS. 4A-C, surface levels of myeloid differentiation marker CD11b were determined by FACS at 72 hours post-treatment. […] In FIGS. 4D-F, apoptosis was assessed by flow cytometry by measuring Annexin V binding and cellular permeability to propidium iodide at 96 hours post-treatment. The relative fraction of cells that were alive, in early apoptosis, in late apoptosis, or dead was then determined.
Briefly, cells were treated with DMSO, Compound B, Compound A, or Compound E as a single agent or in combination with azacitidine at the indicated concentrations. Surface levels of CD11b were determined 72 hours post-treatment (FIGS. 6A, 6C, 6E), and apoptosis was assessed 96 hours post-treatment (FIGS. 6B, 6D, 6F).

A further assay deals with HL-60, Kasumi-1 and NB4. Kind of assay: Apoptosis by Annexin V / propidium iodide flow cytometry in three AML cell lines. Type of assay: cell-based. The settings on record: single agent; 96 hours; HL-60, Kasumi-1, NB4. The method, then:
as §4
FIGS. 10A-F show the treatment of the following AML cell lines: Kasumi-1 (FIGS. 10A and 10B), HL-60 (FIGS. 10C and 10D) and NB4 (FIGS. 10E and 10F), with indicated doses of compounds. FIGS. 10A, 10C, and 10E show surface levels of myeloid differentiation marker CD11b determined by FACS at 72 h post-treatment. […] FIGS. 10B, 10D, and 10F show the assessment of apoptosis by FACS (see, e.g., FIG. 9C).

The next assay deals with GATA2. Kind of assay: GATA2 expression in MV4-11 AML cell line. Type of assay: cell-based. Particulars: single agent at 1 uM, 48 h and 72 h. How it is done:
FIG. 16. […] (A-B) MV4-11 cells were plated at 2×10^5 cells/ml at indicated doses for 48 h and 72 h. RNA was prepared and analyzed for GATA2 and GAPDH as internal control.

For the next assay, the system named is MV4-11 cells. Briefly: MV4-11 tumor growth and survival in Ncr nu/nu mice. Particulars: single agent azacitidine 5 mg/kg IV q3d; MV4-11 in Ncr nu/nu mice. It counts as in vivo. How it is done: Ncr nu/nu mice implanted with MV4-11 cells were treated with vehicle, azacitidine (5 mg/kg IV q3d), or azacitidine (5 mg/kg IV q3d) plus Compound A (50 mg/kg IP 5/2/5/2/5/2/5) for up to 4 weeks. (A) Tumor volume was measured twice weekly and the mean tumor volume±SD is plotted. (B) Fold tumor volume change on day 19 relative to day 1 is plotted. (C) Survival curve was plotted.

A further assay relates to HL-60. Kind of assay: Surface CD11b by FACS in HL-60. Type of assay: cell-based. Particulars: single agent, 72 hours. The method, then: as §4
FIGS. 5A-F show the combination of HDAC inhibitors and azacitidine in the HL-60 cell line. Briefly, cells were treated with DMSO, Compound B, Compound A, or Compound E as a single agent or in combination with azacitidine for 96 hours. Surface levels of CD11b (FIGS. 5A, 5C, 5E) and apoptosis (FIGS. 5B, 5D, 5F) was assessed by flow cytometry, as in FIG. 4.

The test system of a further assay is NB4. Kind of assay: Surface CD11b by FACS in NB4. Particulars: single agent, 72 hours. It counts as cell-based. The method, then:
as §4
FIGS. 7A-F show the combination of HDAC inhibitors and azacitidine in the NB4 cell line. Briefly, cells were treated with DMSO, Compound B, Compound A, or Compound E as single agent or in combination with azacitidine at the indicated concentrations. Surface levels of CD11b were determined 72 hours post-treatment (FIGS. 7A, 7C, 7E), and apoptosis was assessed 96 hours post-treatment (FIGS. 7B, 7D, 7F).

Broadly, the IC50 is the midpoint of a concentration-inhibition curve.

As to `O=C(NO)c1cnc(NC2(c3cccc(F)c3)CCCCC2)nc1` [Compound C, 2-((1-(3-fluorophenyl)cyclohexyl)amino)-N-hydroxypyrimidine-5-carboxamide], the “percentage of CD11b positive cells” value in the assay on MV4-11 [1] is given as “no effect on CD11b positive cells”. In addition, the “viability IC50 relative to HDAC selective range” value in assay [2] was “beyond its selective range”. In assay [3], the Selectivity entry was “HDAC6”.

As to `Nc1cc(F)ccc1NC(=O)c1cnc2c(C3CC3)c(N3CCNCC3)ccc2c1` [Compound H], the “percentage of CD11b positive cells” value in the assay on MV4-11 [1] is reported as “increased the percentage of CD11b positive cells”. In addition, the “viability IC50 relative to HDAC selective range” value in [2] is on record as “beyond its selective range”. The Selectivity entry in [3] is listed as “HDAC3”.

On to `Nc1ccc(-c2cccs2)cc1NC(=O)c1ccc2nc(N3CCNCC3)ccc2c1` [Compound J, N-(2-amino-5-(thiophen-2-yl)phenyl)-2-(piperazin-1-yl)quinoline-6-carboxamide], for which, in the assay on MV4-11 [1], the “percentage of CD11b positive cells” value is “highest potency increasing percentage of CD11b positive cells”. In the assay on MV4-11 [4], the “apoptosis relative to control cells” value is “increase in apoptosis relative to control cells”. The half-maximal inhibitory concentration (IC50) in assay [5] stood at 0.6 µM; in assay [7], 2.95 µM. The cell viability result in assay [2] (AML cell lines) is recorded as “reduces cell viability”. For the same compound, in the assay on MV4-11 [6], the cell cycle arrest entry is recorded as “induced cell cycle arrest as well as apoptosis”.

For `Nc1ncn([C@@H]2O[C@H](CO)[C@@H](O)[C@H]2O)c(=O)n1` [azacitidine, 4-amino-1-β-D-ribofuranosyl-S-triazin-2(1H)-one, reference compound], the CD11b positive cells entry was “increased CD11b positive cells” in the assay with Kasumi-1, “increased CD11b positive cells” with HL-60 and “minimal effects” with NB4. The “apoptosis relative to control cells” value with HL-60, Kasumi-1 and NB4 is recorded as “increase in apoptosis relative to control cells”. Further, the GATA2 level entry in the assay with GATA2 is listed as “induced GATA2 level”. The survival result in the assay with MV4-11 cells is “increased survival”. The tumor growth entry with MV4-11 cells was “reduced tumor growth”. For the same compound, the IC50 in assay [5] was 2.1 µM; in [7] it was 8.11 µM.

The values are drawn from patent publication US9833466B2, “Treatment of leukemia with histone deacetylase inhibitors” (Acetylon Pharmaceuticals Inc., priority 2014, dated 2017).
